# Assay results as given in patent publication EP2739618B1, “QUINAZOLINE COMPOUNDS AS SERINE/THREONINE KINASE INHIBITORS” (Array Biopharma, Inc., priority 2011, dated 2013).
# Biological target: T1, human ERK-2 (Mitogen Activated Kinase 1) (Homo sapiens, UniProt P28482)
# T1 construct: N-terminal 6-His fusion protein in E. coli and corresponding to aa 8-360; 6-His (N); made in house; host or cells: E. coli
# Assay: ERK-2 Enzymatic Assay
# Type: biochemical
# Details: TABLE I; 5nM ERK-2 enzyme, 25µM ATP, S/T17 peptide substrate; single assay or mean of multiple assays
# Procedure: Compounds were tested in an enzymatic assay using human ERK-2 (Mitogen Activated Kinase 1), recombinantly expressed as an N-terminal 6-His fusion protein in E. coli and corresponding to aa 8-360. The substrate used was the fluorescent Omnia peptide S/T17 (Invitrogen of Carlsbad, CA; Cat. KNZ1171C). Test compounds were diluted in DMSO in 3-fold serial dilutions at 100x final concentrations. […] The assay was run at ambient temperature in a white 384-well polypropylene plate (Nunc, Inc of Naperville, IL; Cat. 267462) collecting data every 50 seconds for approximately 30 minutes on an Envision plate reader (PerkinElmer, Inc. of Waltham, MA); Excitation 340 nm/Emission 495 nm. The data collected from each well was fit to a straight line and the resulting rates were used to calculate percent of control. Percent of control was plotted against compound concentration and IC50 values were determined using a four-parameter fit. Representative data is in TABLE I and TABLE II. The reported IC50 may be from a single assay or the mean of multiple assays.
# T1 sequence (P28482 8-360): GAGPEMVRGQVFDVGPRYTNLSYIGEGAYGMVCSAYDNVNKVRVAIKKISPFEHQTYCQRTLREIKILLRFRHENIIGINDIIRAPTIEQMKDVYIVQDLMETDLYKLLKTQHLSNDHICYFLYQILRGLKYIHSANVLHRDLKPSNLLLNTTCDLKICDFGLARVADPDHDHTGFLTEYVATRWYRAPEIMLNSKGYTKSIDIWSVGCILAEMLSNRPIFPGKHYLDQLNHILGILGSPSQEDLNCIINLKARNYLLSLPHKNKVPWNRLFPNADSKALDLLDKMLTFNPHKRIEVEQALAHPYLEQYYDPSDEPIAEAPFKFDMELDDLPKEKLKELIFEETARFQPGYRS
row,IC50,SMILES
1,2.1 nM,"Cn1cc([C@@H](NC(=O)c2ccc3cnc(N[C@@H]4CCOC[C@H]4F)nc3c2)c2ccc(Cl)c(F)c2)cn1 [Compound I-30, 2-((3S,4R)-3-fluoro-tetrahydropyran-4-ylamino)-quinazoline-7-carboxylic acid [(S)-(4-chloro-3-fluoro-phenyl)-(1-methyl-1H-pyrazol-4-yl)-methyl]-amide]"
2,1.7 nM,"COc1ccc([C@H](NC(=O)c2ccc3cnc(NC4CCOCC4)nc3c2)[C@H]2C[C@H](F)CN2)cc1F [Compound I-31, 2-(tetrahydropyran-4-ylamino)-quinazoline-7-carboxylic acid [(S)-(3-fluoro-4-methoxy-phenyl)-((2R,4S)-4-fluoro-pyrrolidin-2-yl)-methyl]-amide]"
3,1.1 nM,"COc1ccc([C@H](NC(=O)c2ccc3cnc(NC4CCOCC4)nc3c2)c2cnn(C)c2)cc1F [Compound I-32, 2-(tetrahydropyran-4-ylamino)-quinazoline-7-carboxylic acid [(S)-(3-fluoro-4-methoxy-phenyl)-(1-methyl-1H-pyrazol-4-yl)-methyl]-amide]"
4,1.5 nM,"COc1ccc([C@H](NC(=O)c2cc(F)c3cnc(NC4CCOCC4)nc3c2)c2cnn(C)c2)cc1F [Compound I-33, 5-fluoro-2-(tetrahydropyran-4-ylamino)-quinazoline-7-carboxylic acid [(S)-(3-fluoro-4-methoxy-phenyl)-(1-methyl-1H-pyrazol-4-yl)-methyl] -amide]"
5,1.6 nM,O=C(N[C@@H](c1ccc(F)c(Cl)c1)[C@]1(F)CCNC1)c1ccc2cnc(NC3CCOCC3)nc2c1 [Compound I-36]
6,73.6 nM,O=C(N[C@H](c1ccc(F)c(Cl)c1)[C@@]1(F)CCNC1)c1ccc2cnc(NC3CCOCC3)nc2c1 [Compound I-37]
7,65.4 nM,O=C(N[C@H](c1ccc(F)c(Cl)c1)[C@]1(F)CCNC1)c1ccc2cnc(NC3CCOCC3)nc2c1 [Compound I-38]
8,7.2 nM,"Cn1cc([C@@H](NC(=O)c2ccc3cnc(N[C@H]4CCO[C@H](CO)C4)nc3c2)c2ccc(Cl)c(F)c2)cn1 [Compound I-42, 2-((2S,4S)-2-hydroxymethyl-tetrahydro-pyran-4-ylamino)-quinazoline-7-carboxylic acid [(S)-(4-chloro-3-fluoro-phenyl)-(1-methyl-1H-pyrazol-4-yl)-methyl]-amide]"
9,1 nM,"COc1ccc([C@H](NC(=O)c2ccc3cnc(NC4CCOCC4)nc3c2)c2cnn(C)c2)cc1Cl [Compound I-44, 2-(tetrahydro-pyran-4-ylamino)-quinazoline-7-carboxylic acid [(S)-(3-chloro-4-methoxy-phenyl)-(1-methyl-1H-pyrazol-4-yl)-methyl]-amide]"
10,4.2 nM,"COc1ccc([C@H](NC(=O)c2ccc3cnc(N[C@H]4CCO[C@H](CO)C4)nc3c2)c2cnn(C)c2)cc1F [Compound I-46, N-((S)-(3-fluoro-4-methoxyphenyl)(1-methyl-1H-pyrazol-4-yl)methyl)-2-((2S,4S)-2-(hydroxymethyl)tetrahydro-2H-pyran-4-ylamino)quinazoline-7-carboxamide]"
11,141 nM,"COc1ccc([C@@H](NC(=O)c2ccc3cnc(NC4CCOCC4)nc3c2)c2cnn(C)c2)cc1C#N [Compound I-49, (R)-N-((3-cyano-4-methoxyphenyl)(1-methyl-1H-pyrazol-4-yl)methyl)-2-(tetrahydro-2H-pyran-4-ylamino)quinazoline-7-carboxamide]"
12,2.8 nM,"COc1ccc([C@H](NC(=O)c2cc(F)c3cnc(NC4CCOCC4)nc3c2)c2cnn(C)n2)cc1F [Compound I-51, (S)-5-Fluoro-N-((3-fluoro-4-methoxyphenyl)(2-methyl-2H-1,2,3-triazol-4-yl)methyl)-2-(tetrahydro-2H-pyran-4-ylamino)quinazoline-7-carboxamide]"
13,2.6 nM,"COc1ccc([C@H](NC(=O)c2cc(F)c3cnc(N[C@H]4CCOC[C@H]4F)nc3c2)c2cnn(C)c2)cc1F [Compound I-52, 5-fluoro-N-((S)-(3-fluoro-4-methoxyphenyl)(1-methyl-1H-pyrazol-4-yl)methyl)-2-((3S,4S)-3-fluorotetrahydro-2H-pyran-4-ylamino)quinazoline-7-carboxamide]"
14,6.8 nM,"COc1ccc(C(NC(=O)c2cc(F)c3cnc(NC4CCOCC4)nc3c2)c2cnn(C)n2)cc1F (stereo not shown) [Compound I-53, 5-Fluoro-2-(tetrahydro-pyran-4-ylamino)-quinazoline-7-carboxylic acid [(3-fluoro-4-methoxy-phenyl)-(2-methyl-2H-[1,2,3]triazol-4-yl)-methyl]-amide]"
15,31 nM,"COc1ccc([C@@H](NC(=O)c2cc(F)c3cnc(NC4CCOCC4)nc3c2)c2cnn(C)n2)cc1F [Compound I-54, 5-Fluoro-2-(tetrahydro-pyran-4-ylamino)-quinazoline-7-carboxylic acid [(R)-(3-fluoro-4-methoxy-phenyl)-(2-methyl-2H-[1,2,3]triazol-4-yl)-methyl]-amide]"
16,2.7 nM,"Cn1cc([C@@H](NC(=O)c2ccc3cnc(NC4CCOCC4)nc3c2)c2ccc(F)c(Cl)c2)cn1 [Compound I-55, 2-(Tetrahydro-pyran-4-ylamino)-quinazoline-7-carboxylic acid [(S)-(3-chloro-4-fluoro-phenyl)-(1-methyl-1H-pyrazol-4-yl)-methyl]-amide]"
17,3.5 nM,"COc1ccc([C@H](NC(=O)c2ccc3cnc(NC4CCOCC4)nc3c2)c2cnn(C)c2)cc1C#N [Compound I-56, 2-(Tetrahydro-pyran-4-ylamino)-quinazoline-7-carboxylic acid [(3-cyano-4-methoxy-phenyl)-(1-methyl-1H-pyrazol-4-yl)-methyl]-amide]"
18,24 nM,"COc1ccc([C@H](NC(=O)c2ccc3cnc(N[C@H]4CCO[C@H](COC(C)=O)C4)nc3c2)c2cnn(C)c2)cc1F [Compound I-57, Acetic acid (2S,4S)-4-(7-{[(S)-(3-fluoro-4-methoxy-phenyl)-(1-methyl-1H-pyrazol-4-yl)-methyl]-carbamoyl}-quinazolin-2-ylamino)-tetrahydro-pyran-2-ylmethyl ester]"
19,20 nM,"COCCNc1ncc2c(F)cc(C(=O)N[C@@H](c3ccc(OC)c(F)c3)c3cnn(C)c3)cc2n1 [Compound I-58, 5-Fluoro-2-(2-methoxy-ethylamino)-quinazoline-7-carboxylic acid [(S)-(3-fluoro-4-methoxy-phenyl)-(1-methyl-1H-pyrazol-4-yl)-methyl]-amide]"
20,15 nM,"COc1ccc([C@H](NC(=O)c2cc(F)c3cnc(NCCCF)nc3c2)c2cnn(C)c2)cc1F [Compound I-59, 5-Fluoro-2-(3-fluoro-propylamino)-quinazoline-7-carboxylic acid [(S)-(3-fluoro-4-methoxy-phenyl)-(1-methyl-1H-pyrazol-4-yl)-methyl]-amide]"
21,4 nM,"COc1ccc([C@H](NC(=O)c2cc(F)c3cnc(NCC4COC4)nc3c2)c2cnn(C)c2)cc1F [Compound I-63, 5-Fluoro-2-[(oxetan-3-ylmethyl)-amino]-quinazoline-7-carboxylic acid [(S)-(3-fluoro-4-methoxy-phenyl)-(1-methyl-1H-pyrazol-4-yl)-methyl]-amide]"
22,0.6 nM,"Cn1cc([C@@H](NC(=O)c2cc(F)c3cnc(NC4CCOCC4)nc3c2)c2ccc(C#N)c(Cl)c2)cn1 [Compound I-65, 5-Fluoro-2-(tetrahydro-pyran-4-ylamino)-quinazoline-7-carboxylic acid [(S)-(3-chloro-4-cyano-phenyl)-(1-methyl-1H-pyrazol-4-yl)-methyl]-amide]"
23,0.6 nM,"COc1ccc([C@H](NC(=O)c2cc(F)c3cnc(NC4CCOCC4)nc3c2)c2cnn(C)c2)cc1Cl [Compound I-66, 5-Fluoro-2-(tetrahydro-pyran-4-ylamino)-quinazoline-7-carboxylic acid [(S)-(3-chloro-4-methoxy-phenyl)-(1-methyl-1H-pyrazol-4-yl)-methyl]-amide]"
24,1.3 nM,Cn1cc([C@@H](NC(=O)c2cc(F)c3cnc(NC4CCOCC4)nc3c2)c2cccc(F)c2)cn1 [Compound I-68]
25,4 nM,COc1ccc([C@H](NC(=O)c2cc(F)c3cnc(N[C@@H]4CCOC[C@@H]4F)nc3c2)c2cnn(C)c2)cc1F [Compound I-70]

# Same assay, conditions: TABLE II; 5nM ERK-2 enzyme, 25µM ATP, S/T17 peptide substrate; single assay or mean of multiple assays
row,IC50,SMILES
1,52.8 nM,COc1ccc([C@H](NC(=O)c2ccc3cnc(NC4CS(=O)(=O)C4)nc3c2)c2cnn(C)c2)cc1F [II-3]
2,15.7 nM,COc1ccc([C@@H](NC(=O)c2cc(F)c3cnc(NC4CCOCC4)nc3c2)c2cnn(C)c2)cc1F [II-4]
3,4.2 nM,COc1ccc([C@H](NC(=O)c2ccc3cnc(N[C@H]4C[C@@H](O)C4)nc3c2)c2cnn(C)c2)cc1F [II-8]
4,3.8 nM,COc1ccc([C@H](NC(=O)c2ccc3cnc(N[C@H]4C[C@H](O)C4)nc3c2)c2cnn(C)c2)cc1F [II-9]
5,13.8 nM,COc1ccc([C@H](NC(=O)c2ccc3cnc(NC4CC(OC)C4)nc3c2)c2cnn(C)c2)cc1F (stereo partly shown) [II-10]
6,13.9 nM,COc1ccc([C@H](NC(=O)c2cc(F)c3cnc(NCCC#N)nc3c2)c2cnn(C)c2)cc1F [II-11]
7,1.2 nM,Cn1cc([C@@H](NC(=O)c2cc(F)c3cnc(NC4CCOCC4)nc3c2)c2cccc(F)c2)cn1 [II-12]
8,153 nM,COc1ccc([C@H](NC(=O)c2cc(F)c3cnc(NC4CCOCC4)nc3c2)c2cnn(C)c2)nc1 [II-14]
9,4.3 nM,COc1ccc([C@H](NC(=O)c2cc(F)c3cnc(N[C@@H]4CCOC[C@@H]4F)nc3c2)c2cnn(C)c2)cc1F [II-15]
